Tests used:
[1] = tested on: aromatase activity in SK-BR-3 breast cancer cells; test: Aromatase tritiated water-release assay in SK-BR-3 cell lines (first compound set); type: cell-based, human; conditions: SK-BR-3 cells, 24 h treatment; five concentrations, each in triplicate; read-out: IC50 (μM), suppression of aromatase activity in SK-BR-3 breast cancer cells
Description: Aromatase Tritiated Water-Release Assay in SK-BR-3 Cell Lines. SK-BR-3 cells were obtained from ATCC (Rockville, Md.). Cell cultures were maintained in phenol red-free custom media (MEM, Earle's salts, 1.5× amino acids, 2× nonessential amino acids, L-glutamine, 1.5× vitamins, Gibco BRL) supplemented with 10% fetal bovine serum (FBS), 2 mM L-glutamine, and 20 mg/L gentamycin. Measurement of aromatase enzyme activity was based on the tritium water release assay. 24 Cells in 100 mm Petri dish were treated with 0.1% DMSO (control), and inhibitors at the indicated concentrations. After 24 h, the media was changed and the cells were incubated with 100 nM [1â-3H]-androst-4-ene-3,17-dione ([…]) for 3 h. Subsequently, the reaction mixture was removed, and proteins were precipitated using 10% trichloroacetic acid at 42° C. for 20 min. After a brief centrifugation, the media was extracted three times with an equal amount of chloroform to extract unused substrate and further dextran-treated charcoal. After centrifugation, a 250-μL aliquot containing the product was counted in 5 mL of liquid scintillation mixture. Results were corrected for blanks and for the cell contents of culture flasks, and results were expressed as picomoles of 3H2O formed per hour incubation time per million live cells (pmol/h/10^6 cells). To determine the amount of cells in each flask, the cells were trypsinized and analyzed using the diphenylamine DNA assay adapted to a 96-well plate. (Natarajan N.; Shambaugh, G. E., 3rd; Elseth K. M.; Haines G. K.; Radosevich J. A. Adaptation of the diphenylamine (DPA) assay to a 96-well plate tissue culture format and comparison with the MTT assay. Biotechniques 1994, 17, 166-171; incorporated herein by reference). IC50 sigmoidal dose-response data were analyzed with Microsoft Excel and the Graphpad Prism (Version 3.0) program.

[2] = tested on: PGE2 production in MDA-MB-231 cells; test: Enzyme immunoassay of PGE2 in MDA-MB-231 cells (COX-2 inhibitory activity); type: cell-based, human; conditions: 25 μM, 24 h (FIG. 4)
Description: Enzyme Immunoassay of PGE2 in MDA-MB-231 Cells. MDA-MB-231 cells were obtained from ATCC (Rockville, Md.). Cell cultures were maintained in phenol red-free custom media (MEM, Earle's salts, 1.5× amino acids, 2× nonessential amino acids, L-glutamine, 1.5× vitamins, Gibco BRL) supplemented with 10% fetal bovine serum (FBS), 2 mM L-glutamine and 20 mg/L gentamycin. To study PGE2 synthesis in cell culture media, experiments were performed in […] Petri dishes. An aliquot of MDA-MB-231 cells (15×10^4 cells) were added to each dish and then incubated overnight to allow the cells to adhere to the dish. After that, cells were serum starved in defined media for 24 h. This step was followed by replacement of media with fresh media containing either vehicle (DMSO) or the indicated concentration of agents. After 24 h incubation at 37° C. the media were collected and the amount of PGE2 was determined by ELISA (Cayman Chemical) according to the protocol provided by the manufacturer. PGE2 concentration was normalized to total protein. Total proteins were extracted from adhered cells by 30 min treatment with 0.5 M NaOH at room temperature and shaking. Protein concentrations in these extracts were determined using a protein assay method (Bio-Rad Laboratories, Inc., Hercules, Calif.).

[3] = target: T1, aromatase activity in JAR choriocarcinoma placental cells (Homo sapiens, UniProt P11511); test: Tritiated water-release assay in JAR cells; type: cell-based
T1 construct: JAR choriocarcinoma placental cells (which produce aromatase expression from promoter I.1 mediated by protein kinase C); host or cells: JAR
T1 sequence (P11511 1-503): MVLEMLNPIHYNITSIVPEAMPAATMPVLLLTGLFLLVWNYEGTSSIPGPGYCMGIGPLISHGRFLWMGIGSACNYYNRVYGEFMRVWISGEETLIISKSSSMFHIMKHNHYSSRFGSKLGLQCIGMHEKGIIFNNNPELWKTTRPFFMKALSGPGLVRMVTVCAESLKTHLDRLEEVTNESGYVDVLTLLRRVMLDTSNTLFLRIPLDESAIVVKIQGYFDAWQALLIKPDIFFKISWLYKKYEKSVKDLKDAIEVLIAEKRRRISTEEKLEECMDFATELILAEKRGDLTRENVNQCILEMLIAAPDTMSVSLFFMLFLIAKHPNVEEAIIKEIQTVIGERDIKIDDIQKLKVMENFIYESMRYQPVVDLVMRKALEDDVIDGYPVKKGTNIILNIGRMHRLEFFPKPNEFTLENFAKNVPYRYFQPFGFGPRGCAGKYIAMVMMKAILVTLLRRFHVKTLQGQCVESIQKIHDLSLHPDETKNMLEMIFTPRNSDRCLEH
Description: (§1) Cell Culture. AR and SK-BR-3 cells were obtained from ATCC (Rockville, Md.). SK-BR-3 cells were maintained in phenol red-free custom media (MEM, Earle's salts, 1.5× amino acids, 2× non-essential amino acids, L-glutamine, 1.5× vitamins, Gibco BRL) supplemented with 10% fetal bovine serum (FBS), 2 mM L-glutamine and 20 mg/L gentamycin. JAR cells were maintained in RPMI 1640 medium with 2 mM L-glutamine adjusted to contain 1.5 g/L sodium bicarbonate, 4.5 g/L glucose, 10 mM HEPES, and 1.0 mM sodium pyruvate, 90%; FBS, 10%. Fetal bovine serum was heat inactivated for 30 min in a 56° C. water bath before use. Cell cultures were grown at 37° C., in a humidified atmosphere of 5% CO2 in a Hereaus CO2 incubator. For all experiments, cells were plated in 6 well plates and grown to subconfluency. Before treatment, the media was changed to a defined one containing DMEM/F12 media (Sigma) with 1.0 mg/mL human albumin (OSU Hospital Pharmacy), 5.0 mg/L human transferin and 5.0 mg/L bovine insulin.
(§2) Tritiated water-release assay in JAR and SK-BR-3 cell lines. Measurement of aromatase enzyme activity was based on the tritium water release assay. Cells in six well plates were treated with 0.1% DMSO (control), and inhibitors at the indicated concentrations. After 24 hours, the cells were incubated 3 hours (SK-BR-3 cells) or 1 hour (JAR cells) with fresh media along with 100 nM [1β-^3H]-androst-4-ene-3,17-dione (1 μCi). Subsequently, the reaction mixture was removed, and proteins were precipitated using 10% trichloroacetic acid at 42° C. for 20 min. After a brief centrifugation, the media was extracted three times with an equal amount of chloroform to remove remaining substrate and further treated with dextran-treated charcoal. After centrifugation, a 250-μl aliquot containing the product was counted in 5 ml of liquid scintillation mixture. Results were corrected for blanks and for the cell contents of culture flasks, and results were expressed as picomoles of ^3H2O formed per hour incubation time per million live cells (pmol/h/10^6 cells). To determine the amount of cells in each flask, the cells were lysed and analyzed using the diphenylamine DNA assay adapted to a 96-well plate. IC50 sigmoidal dose-response data were analyzed with Microsoft Excel and the Graphpad Prism (Version 3.0) program.
(§3) Diphenylamine DNA Assay To determine the amount of viable cells in each flask, the cells were lysed with 0.5N NaOH aqueous solution and analyzed using the diphenylamine DNA assay adapted to a 96-well plate. DNA standards (0-30 μg) were prepared using double-stranded DNA reconstituted in PBS and added in triplicates directly to the wells. A uniform cell suspension was prepared from the 6 well plate in 300 μl 0.5N NaOH aqueous solution, and 60 μl of the unknown samples were added in triplicates to separate wells. A solution of 0.16% acetaldehyde in water was prepared and mixed at a 1:5 ratio with perchloric acid (20% vol/vol). This solution (60 μl) was added to each well along with 100 μl of a 4% diphenylamine solution in glacial acetic acid. The plates were incubated at 37° C. for 24 hours. After centrifugation, 100 μl supernatant of each well was transferred to a new 96 well plate, and the OD595 was measured using a microplater reader. The DNA concentration was determined by extrapolation to the standard curve and the amount of cells/well was calculated using the equation: 1 cell≈7 pg DNA.

[4] = tested on: aromatase activity in SK-BR-3 breast cancer cells; test: Tritiated water-release assay in SK-BR-3 cells (additional compounds); type: cell-based, human
Description: as §1, with “JAR cells were maintained in RPMI 1640 medium with 2 mM L-glutamine adjusted to contain 1.5 g/L sodium bicarbonate, 4.5 g/L glucose, 10 mM HEPES, and 1.0 mM sodium pyruvate, 90%; FBS, 10%.” left out
as §2
as §3, with “A solution of 0.16% acetaldehyde in water was prepared and mixed at a 1:5 ratio with perchloric acid (20% vol/vol).” left out

Row | Compound | IC50 [1] | melting point | inhibition at 15 µM ([3]; 24 h, 15 μM (FIG. 11), read-out: decrease of aromatase activity in JAR cells) | IC50 ([4]; dose-response (FIG. 13), read-out: IC50 (μM), suppression of aromatase activity in SK-BR-3 breast cancer cells) | PGE2 production (COX-2 inhibitory activity) [2] | aromatase suppression activity in JAR cells (in words) ([3]; 15 μM) | decrease of aromatase activity in SK-BR-3 cells (in words) ([4]; 2.5 μM)
1 | CC1CCCCC1Oc1cc([N+](=O)[O-])ccc1NS(C)(=O)=O (stereo not drawn) [Compound 11, N-(2-Methylcyclohexyloxy-4-nitrophenyl)methanesulfonamide] | 1.21 µM |  |  |  | did not show any COX-2 inhibitory activity |  | 
2 | CS(=O)(=O)Nc1ccc([N+](=O)[O-])cc1OC1CCCC1 [Compound 12, N-(2-Cyclopentyloxy-4-nitrophenyl)methanesulfonamide] | 0.87 µM | 139 to 140 °C |  |  | significantly decrease in PGE2 production |  | 
3 | CC1CCCCC1Oc1cc([N+](=O)[O-])ccc1N(C)S(C)(=O)=O (stereo not drawn) [Compound 20, N-Methyl-N-(2-methylcyclohexyloxy-4-nitrophenyl)methanesulfonamide] | 0.96 µM |  |  |  | did not show any inhibitory activity |  | 
4 | CN(c1ccc([N+](=O)[O-])cc1OC1CCCC1)S(C)(=O)=O [Compound 21, N-Methyl-N-(2-cyclopentyloxy-4-nitrophenyl)methanesulfonamide] | 0.44 µM | 102 to 104 °C |  |  | did not show any inhibitory activity |  | 

More lines, main results first:

Row | IC50 [1] | melting point | inhibition at 15 µM ([3]; 24 h, 15 μM (FIG. 11), read-out: decrease of aromatase activity in JAR cells) | IC50 ([4]; dose-response (FIG. 13), read-out: IC50 (μM), suppression of aromatase activity in SK-BR-3 breast cancer cells) | Compound | PGE2 production (COX-2 inhibitory activity) [2] | aromatase suppression activity in JAR cells (in words) ([3]; 15 μM) | decrease of aromatase activity in SK-BR-3 cells (in words) ([4]; 2.5 μM)
5 |  | 193 to 195 °C | < 50% |  | CS(=O)(=O)Nc1ccc([N+](=O)[O-])cc1OCc1cccc2ccccc12 [Compound 38b, N-[2-(α-naphthylmethoxy) 4-nitrophenyl]methanesulfonamide] |  | inhibited aromatase activity in both JAR cells and SK-BR-3 cells | inhibited aromatase activity in both JAR cells and SK-BR-3 cells
6 |  |  |  | 27 µM | CS(=O)(=O)Nc1ccc([N+](=O)[O-])cc1Oc1ccccc1 [Nimesulide, N-(2-phenoxy-4-nitrophenyl)-methanesulfonamide, reference compound] |  |  | 

Reference: patent publication US7741520B2, “Sulfonanilide analogs as selective aromatase modulators (SAMs)” (The Ohio State University Research Foundation, priority 2006, dated 2010)
